Test results reported in US8575091B1, “Amylin analogues and pharmaceutical compositions thereof” (Novo Nordisk A/S, priority 2012, dated 2013).
Numbered stars: 1 amine (or outer) side, 2 acyl side, 3 side chain; on linkers, the order of the positions; unused ones are H or OH. Bridge positions count the residues as written; N and C are the ends. Side chains are listed from the residue outwards. Peptide text beside a SMILES is read from it. * marks the point of attachment. C20 diacid = O=C(O)CCCCCCCCCCCCCCCCCCC(=O)*; γGlu = O=C(O)[C@H](CCC(=O)[*:2])N[*:1]

What was measured:
[1] = molecular target: T1, human calcitonin receptor (Homo sapiens, UniProt P30988); assay: Assay (VII) binding to the human calcitonin receptor (SPA, 125I-Calcitonin); conditions: read-out: hCTR bind IC50;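 note: cell membranes coupled to SPA beads, competitive displacement read by scintillation counting, IC50 derived from a one-site competition fit as a measure of receptor affinity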
T1 construct: expressed in transfected cells
T1 sequence (P30988 25-474): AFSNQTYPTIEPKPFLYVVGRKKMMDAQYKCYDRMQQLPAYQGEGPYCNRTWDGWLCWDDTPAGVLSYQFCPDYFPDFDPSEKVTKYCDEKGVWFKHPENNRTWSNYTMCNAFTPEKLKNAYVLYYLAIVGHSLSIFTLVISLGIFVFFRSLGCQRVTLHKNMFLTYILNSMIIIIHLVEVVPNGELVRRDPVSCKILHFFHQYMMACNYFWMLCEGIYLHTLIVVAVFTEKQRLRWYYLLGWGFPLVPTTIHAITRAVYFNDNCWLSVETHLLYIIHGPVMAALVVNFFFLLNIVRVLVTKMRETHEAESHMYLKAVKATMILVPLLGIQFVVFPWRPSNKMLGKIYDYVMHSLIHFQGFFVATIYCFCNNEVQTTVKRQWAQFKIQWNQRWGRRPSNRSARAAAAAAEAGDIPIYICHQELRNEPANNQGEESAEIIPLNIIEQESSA

[2] = molecular target: T2, human amylin receptor (amylin 3(a) receptor: human calcitonin receptor + RAMP-3) (Homo sapiens, UniProt O60896+P30988); assay: Assay (II)a functional assay, human amylin receptor (CRE luciferase, BHK cells); assay type: cell-based; conditions: for EC50: functional assay, human amylin receptor, read-out: hAmylin-R funct. EC50
T2 construct: expressed in transfected cells
T2 sequence (P30988 25-474): T1 sequence (P30988 25-474)
T2 sequence (O60896 24-148 partner): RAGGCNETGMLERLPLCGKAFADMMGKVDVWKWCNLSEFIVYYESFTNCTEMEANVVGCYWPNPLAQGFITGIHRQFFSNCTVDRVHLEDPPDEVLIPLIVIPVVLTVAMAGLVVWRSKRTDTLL

human amylin receptor = molecular target: T3, human amylin receptor (Homo sapiens, UniProt O60896+P30988); assay: Assay (V) binding to the human amylin receptor (SPA, 125I-rat amylin); conditions: for IC50: human amylin receptor membranes, SPA, read-out: hAmylin-R bind IC50
T3 construct: expressed in transfected cells
T3 sequence (P30988 25-474): T1 sequence (P30988 25-474)
T3 sequence (O60896 24-148 partner): T2 sequence (O60896 24-148 partner)
In short: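 IC50, taken as receptor affinity, came from one-site binding competition analysis of scintillation proximity counts. Amylin 3(a)/CRE-luc cell membranes (35 ng/μL final) were mixed with SPA beads (0.05 mg/well) in 50 mM Hepes pH 7.4 containing CaCl2, MgCl2, 0.1% OA and 0.02% Tween20.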

[3] = molecular target: T1, human calcitonin receptor; assay: Assay (II)a functional assay, human calcitonin receptor (CRE luciferase, BHK cells);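 note: luminescence from a CRE-driven luciferase reporter, read by single photon counting after cells were exposed to test samples for 3 h at 37 °C under 5% CO2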; assay type: cell-based; conditions: read-out: hCTR funct. EC50
[4] = Table 6, human functional selectivity (hCTR EC50 / hAmylin-R EC50)
[5] = Table 6a, human functional selectivity (hCTR EC50 / hAmylin-R EC50), at least 5

SMILES | IC50 [1] [nM] | EC50 [2] [nM] | IC50 (human amylin receptor) [nM] | EC50 [3] [nM] | Ratio hCT/hAmylin funct. [2, 4] | Ratio hCT/hAmylin funct. [2, 5] | Ratio hCT/hAmylin funct. ([2]; Table 6i, hCTR funct. EC50 / hAmylin-R funct. EC50) | Ratio hCT/hAmylin funct. ([2]; hCTR funct. EC50 divided by hAmylin-R funct. EC50) | Ratio hCT/hAmylin funct. ([2]; Table 6j, hCTR funct. EC50 / hAmylin-R funct. EC50) | Ratio hCT/hAmylin funct. ([2]; Table 6k, hCTR funct. EC50 / hAmylin-R funct. EC50) | Ratio hCT/hAmylin binding (human amylin receptor; human binding ratio, included for comparison)
CC[C@H](C)[C@H](NC(=O)[C@H](C)NC(=O)CNC(=O)[C@H](Cc1ccccc1)NC(=O)[C@H](CC(N)=O)NC(=O)[C@@H]1CCCN1C(=O)[C@H](CO)NC(=O)[C@H](CO)NC(=O)[C@H](Cc1c[nH]cn1)NC(=O)[C@H](CCCNC(=N)N)NC(=O)[C@H](CC(C)C)NC(=O)[C@H](Cc1ccccc1)NC(=O)[C@H](CC(N)=O)NC(=O)[C@H](C)NC(=O)[C@H](CC(C)C)NC(=O)[C@H](CCCNC(=N)N)NC(=O)[C@H](CCC(N)=O)NC(=O)[C@@H](NC(=O)[C@H](C)NC(=O)[C@@H]1CSSC[C@H](NC(=O)[C@@H](N)CCCCNC(=O)CC[C@H](NC(=O)CCCCCCCCCCCCCCCCC(=O)O)C(=O)O)C(=O)N[C@@H](CC(N)=O)C(=O)N[C@@H]([C@@H](C)O)C(=O)N[C@@H](C)C(=O)N[C@@H]([C@@H](C)O)C(=O)N1)[C@@H](C)O)C(=O)N1CCC[C@H]1C(=O)N[C@@H](CO)C(=O)N[C@@H](CO)C(=O)N[C@H](C(=O)N[C@@H](CC(N)=O)C(=O)N[C@H](C(=O)NCC(=O)N[C@@H](Cc1c[nH]cn1)C(=O)N[C@@H](CC(N)=O)C(=O)N[C@H](C(=O)N[C@@H](Cc1ccc(O)cc1)C(N)=O)[C@@H](C)O)C(C)C)[C@@H](C)O [Example 113] | 22.7 | 0.096 | 0.382 | 5.85 | – | – | – | – | – | – | –
CC[C@H](C)[C@H](NC(=O)[C@H](C)NC(=O)CNC(=O)[C@H](Cc1ccccc1)NC(=O)[C@H](CC(N)=O)NC(=O)[C@@H]1CCCN1C(=O)[C@H](CO)NC(=O)[C@H](CO)NC(=O)[C@H](Cc1c[nH]cn1)NC(=O)[C@H](CCCNC(=N)N)NC(=O)[C@H](CC(C)C)NC(=O)[C@H](Cc1ccccc1)NC(=O)[C@H](CC(=O)O)NC(=O)[C@H](C)NC(=O)[C@H](CC(C)C)NC(=O)[C@H](CCCNC(=N)N)NC(=O)[C@H](CCC(N)=O)NC(=O)[C@@H](NC(=O)[C@H](C)NC(=O)[C@@H]1CSSC[C@H](NC(=O)[C@@H](N)CCCCNC(=O)CC[C@H](NC(=O)CC[C@H](NC(=O)CCCCCCCCCCCCCCCCCCC(=O)O)C(=O)O)C(=O)O)C(=O)N[C@@H](CC(N)=O)C(=O)N[C@@H]([C@@H](C)O)C(=O)N[C@@H](C)C(=O)N[C@@H]([C@@H](C)O)C(=O)N1)[C@@H](C)O)C(=O)N1CCC[C@H]1C(=O)N[C@@H](CO)C(=O)N[C@@H](CO)C(=O)N[C@H](C(=O)N[C@@H](CC(N)=O)C(=O)N[C@H](C(=O)NCC(=O)N1CCC[C@H]1C(=O)N[C@@H](CCC(=O)O)C(=O)N[C@H](C(=O)N[C@@H](Cc1ccc(O)cc1)C(N)=O)[C@@H](C)O)C(C)C)[C@@H](C)O [Example 122] (H-K([γGlu-γGlu-C20 diacid])CNTATCATQRLADFLRHSSPNFGAIPSSTNVGPETY-NH2; disulfide 2-7) | 8.56 | 0.159 | 0.172 | 0.843 | 5.3 | 5.3 | – | – | 5.3 | 5.3 | –

These reach a lower IC50 [1]. Values come first.

IC50 [1] [nM] | EC50 [2] [nM] | IC50 (human amylin receptor) [nM] | EC50 [3] [nM] | Ratio hCT/hAmylin funct. [2, 4] | Ratio hCT/hAmylin funct. [2, 5] | Ratio hCT/hAmylin funct. ([2]; Table 6i, hCTR funct. EC50 / hAmylin-R funct. EC50) | Ratio hCT/hAmylin funct. ([2]; hCTR funct. EC50 divided by hAmylin-R funct. EC50) | Ratio hCT/hAmylin funct. ([2]; Table 6j, hCTR funct. EC50 / hAmylin-R funct. EC50) | Ratio hCT/hAmylin funct. ([2]; Table 6k, hCTR funct. EC50 / hAmylin-R funct. EC50) | Ratio hCT/hAmylin binding (human amylin receptor; human binding ratio, included for comparison) | SMILES
2.04 | 0.071 | 0.082 | 0.345 | 4.9 | – | – | – | – | – | – | CC[C@H](C)[C@H](NC(=O)[C@H](C)NC(=O)CNC(=O)[C@H](Cc1ccccc1)NC(=O)[C@H](CC(N)=O)NC(=O)[C@@H]1CCCN1C(=O)[C@H](CO)NC(=O)[C@H](CO)NC(=O)[C@H](Cc1c[nH]cn1)NC(=O)[C@H](CCCNC(=N)N)NC(=O)[C@H](CC(C)C)NC(=O)[C@H](Cc1ccccc1)NC(=O)[C@H](Cc1c[nH]cn1)NC(=O)[C@H](C)NC(=O)[C@H](CC(C)C)NC(=O)[C@H](CCCNC(=N)N)NC(=O)[C@H](CCC(N)=O)NC(=O)[C@@H](NC(=O)[C@H](C)NC(=O)[C@@H]1CSSC[C@H](NC(=O)[C@@H](N)CCCCNC(=O)CC[C@H](NC(=O)CCCCCCCCCCCCCCCCCCC(=O)O)C(=O)O)C(=O)N[C@@H](CC(N)=O)C(=O)N[C@@H]([C@@H](C)O)C(=O)N[C@@H](C)C(=O)N[C@@H]([C@@H](C)O)C(=O)N1)[C@@H](C)O)C(=O)N1CCC[C@H]1C(=O)N[C@@H](CO)C(=O)N[C@@H](CO)C(=O)N[C@H](C(=O)N1CCC[C@H]1C(=O)N[C@H](C(=O)NCC(=O)N1CCC[C@H]1C(=O)N[C@@H](CC(N)=O)C(=O)N[C@H](C(=O)N[C@@H](Cc1ccc(O)cc1)C(N)=O)[C@@H](C)O)C(C)C)[C@@H](C)O [Example 116] (H-K([γGlu-C20 diacid])CNTATCATQRLAHFLRHSSPNFGAIPSSTPVGPNTY-NH2; disulfide 2-7)
1.56 | 0.222 | 0.069 | 1.28 | 5.8 | 5.8 | 5.8 | 5.8 | – | – | – | CC[C@H](C)[C@H](NC(=O)[C@H](C)NC(=O)CNC(=O)[C@H](Cc1ccccc1)NC(=O)[C@H](CC(N)=O)NC(=O)[C@@H]1CCCN1C(=O)[C@H](CO)NC(=O)[C@H](CO)NC(=O)[C@H](Cc1c[nH]cn1)NC(=O)[C@H](CCCNC(=N)N)NC(=O)[C@H](CC(C)C)NC(=O)[C@H](Cc1ccccc1)NC(=O)[C@H](CCC(=O)O)NC(=O)[C@H](C)NC(=O)[C@H](CC(C)C)NC(=O)[C@H](CCCNC(=N)N)NC(=O)[C@H](CCC(N)=O)NC(=O)[C@@H](NC(=O)[C@H](C)NC(=O)[C@@H]1CSSC[C@H](NC(=O)[C@@H](N)CCCCNC(=O)CC[C@H](NC(=O)CC[C@H](NC(=O)CCCCCCCCCCCCCCCCCCC(=O)O)C(=O)O)C(=O)O)C(=O)N[C@@H](CC(N)=O)C(=O)N[C@@H]([C@@H](C)O)C(=O)N[C@@H](C)C(=O)N[C@@H]([C@@H](C)O)C(=O)N1)[C@@H](C)O)C(=O)N[C@@H](CC(C)C)C(=O)N[C@@H](CO)C(=O)N[C@@H](CO)C(=O)N[C@H](C(=O)N1CCC[C@H]1C(=O)N[C@H](C(=O)NCC(=O)N1CCC[C@H]1C(=O)N[C@@H](CCC(=O)O)C(=O)N[C@H](C(=O)N[C@@H](Cc1ccc(O)cc1)C(N)=O)[C@@H](C)O)C(C)C)[C@@H](C)O [Example 121] (H-K([γGlu-γGlu-C20 diacid])CNTATCATQRLAEFLRHSSPNFGAILSSTPVGPETY-NH2; disulfide 2-7)
0.226 | 0.132 | 0.533 | 0.102 | 0.8 | – | – | – | – | – | 0.4 | CC[C@H](C)[C@H](NC(=O)[C@H](C)NC(=O)CNC(=O)[C@H](Cc1ccccc1)NC(=O)[C@H](CC(N)=O)NC(=O)[C@@H]1CCCN1C(=O)[C@H](CO)NC(=O)[C@H](CO)NC(=O)[C@H](Cc1c[nH]cn1)NC(=O)[C@H](CCCNC(=N)N)NC(=O)[C@H](CC(C)C)NC(=O)[C@H](Cc1ccccc1)NC(=O)[C@H](CCC(=O)O)NC(=O)[C@H](C)NC(=O)[C@H](CC(C)C)NC(=O)[C@H](CCCNC(=N)N)NC(=O)[C@H](CCC(N)=O)NC(=O)[C@@H](NC(=O)[C@H](C)NC(=O)[C@@H]1CSSC[C@H](NC(=O)[C@@H](N)CCCCNC(=O)CC[C@H](NC(=O)CC[C@H](NC(=O)CCCCCCCCCCCCCCCCCCC(=O)O)C(=O)O)C(=O)O)C(=O)N[C@@H](CC(N)=O)C(=O)N[C@@H]([C@@H](C)O)C(=O)N[C@@H](C)C(=O)N[C@@H]([C@@H](C)O)C(=O)N1)[C@@H](C)O)C(=O)N1CCC[C@H]1C(=O)N[C@@H](CO)C(=O)N[C@@H](CO)C(=O)N[C@H](C(=O)N[C@@H](CC(N)=O)C(=O)N[C@H](C(=O)NCC(=O)N1CCC[C@H]1C(=O)N[C@@H](CCC(=O)O)C(=O)N[C@H](C(=O)N1CCC[C@H]1C(N)=O)[C@@H](C)O)C(C)C)[C@@H](C)O [Example 125] (H-K([γGlu-γGlu-C20 diacid])CNTATCATQRLAEFLRHSSPNFGAIPSSTNVGPETP-NH2; disulfide 2-7)
